# Test results from patent US20130196050A1, “SALTY TASTE ENHANCER” (AJINOMOTO CO., INC., priority 2010, published 2013).
# Test system: salty taste
# Assay: Sensory evaluation of salty taste-enhancing activity (quantitative sensory evaluation test)
# Assay type: in vivo, panelists
# Method: The strength of the salty taste enhancing activity of the compound of Example 35 was examined by a quantitative sensory evaluation test.
# The quantitative sensory evaluation test was performed as follows. The strength of the salty taste enhancing activity when the compound of Example 35 as a sample was mixed at 0.00005 to 0.0040 g/dl with distilled water containing sodium chloride (0.5 g/dl) was measured. Distilled water containing sodium chloride at 0.55 g/dl, 0.60 g/dl, 0.65 g/dl was used as a comparison target. Using a linear measurement method, the corresponding marks were put down as positions in the straight lines showing the sodium chloride concentrations of 1.0 time (0.50 g/dl), 1.1 times (0.55 g/dl), 1.2 times (0.60 g/dl), 1.3 times (0.65 g/dl). For sensory marks, the positions put down by the panelists were measured, averaged and shown as the salty taste enhancement ratio (times) wherein n=5. […] The “initial taste” is the evaluation of the strength of the salty taste for 2 seconds after placing in the mouth, and the “middle and after taste” is a combination of middle taste and after taste, which is the evaluation of the strength of the salty taste after 2 seconds from placing in the mouth.
# [1] = sensory evaluation FIG. 2 compared with FIG. 3
smiles,measurement,setting,value
"O=C(NCCc1c[nH]c2ccc(O)cc12)c1c(O)cccc1O [Example 35, 2,6-dihydroxy-N-(2-(5-hydroxy-1H-indol-3-yl)ethyl)benzamide]",salty taste enhancing activity,"0.00005 to 0.0040 g/dl in distilled water containing sodium chloride 0.5 g/dl, n=5, FIG. 2",has a salty taste enhancing activity
same,concentration region in which salty taste enhancing effect and ENaC activation current began to show,[1],≤ 0.0001 g/dL
same,concentration region in which salty taste enhancing effect and ENaC activation current reach plateau,[1],exceeding 0.0010 g/dl
